# Source: patent publication US12060347B2 (BRISTOL-MYERS SQUIBB COMPANY, priority 2016, dated 2024)
# Target: T1, human PAR4 (Homo sapiens, UniProt Q96RI0)
# T1 construct: expressed in transfected cells; host or cells: HEK293 PAR4 Clone 1.2A (BMS Arctic ID 383940)
# T1 sequence (Q96RI0 18-385): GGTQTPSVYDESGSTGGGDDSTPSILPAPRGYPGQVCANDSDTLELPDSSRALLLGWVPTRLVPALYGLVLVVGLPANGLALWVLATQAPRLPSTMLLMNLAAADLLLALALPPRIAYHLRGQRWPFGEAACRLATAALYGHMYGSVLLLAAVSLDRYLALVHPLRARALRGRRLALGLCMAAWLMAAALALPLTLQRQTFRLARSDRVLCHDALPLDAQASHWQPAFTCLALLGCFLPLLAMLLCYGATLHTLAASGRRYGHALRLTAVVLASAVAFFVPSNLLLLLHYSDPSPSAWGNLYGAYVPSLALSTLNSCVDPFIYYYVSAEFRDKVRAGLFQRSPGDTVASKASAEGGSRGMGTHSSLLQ
# Test: PAR4 FLIPR assay: antagonism of agonist-peptide-induced calcium mobilization in PAR4-expressing HEK293 cells
# Format: cell-based
# Settings: H-Ala-Phe(4-F)-[…]NH2-induced intracellular calcium mobilization, 11-point curves
row,Structure (SMILES),IC50 [nM]
1,"COc1cnc2c(-c3nc4cc(F)c(OC[C@@H](C)OC(=O)Nc5cnc(CO)nc5)nc4s3)cc(C)cc2n1 [Example 768, (R)-1-((6-fluoro-2-(2-methoxy-7-methylquinoxalin-5-yl)thiazolo[5,4-b]pyridin-5-yl)oxy)propan-2-yl (2-(hydroxymethyl)pyrimidin-5-yl)carbamate]",10
2,"COc1cnc2c(-c3nc4cc(F)c(O[C@@H](C)[C@@H](C)OC(=O)Nc5cnc(C)nc5)nc4s3)cc(Cl)cc2c1 [Example 769, (2R,3S)-3-((2-(6-chloro-3-methoxyquinolin-8-yl)-6-fluorothiazolo[5,4-b]pyridin-5-yl)oxy)butan-2-yl (2-methylpyrimidin-5-yl)carbamate]",3.2
3,COc1cnc2c(-c3nc4cc(F)c(O[C@@H](C)[C@@H](C)OC(=O)Nc5cnc(C)nc5)cc4s3)cc(CO)cc2c1 [Example 773],11
4,"COc1cnc2c(-c3nc4cc(F)c(O[C@@H](C)[C@@H](C)OC(=O)Nc5ccc6[nH]c(=O)oc6c5)nc4s3)cc(Cl)cc2c1 [Example 777, (2R,3S)-3-((2-(6-chloro-3-methoxyquinolin-8-yl)-6-fluorothiazolo[5,4-b]pyridin-5-yl)oxy) butan-2-yl (2-oxo-2,3-dihydrobenzo[d]oxazol-6-yl)carbamate]",8.6
5,"COc1cnc2c(-c3nc4cc(F)c(O[C@@H](C)[C@@H](C)OC(=O)Nc5ccnc(OCCC(C)(C)O)c5)nc4s3)cc(Cl)cc2c1 [Example 778, (2R,3S)-3-((2-(6-chloro-3-methoxyquinolin-8-yl)-6-fluorothiazolo[5,4-b]pyridin-5-yl)oxy) butan-2-yl (2-(3-hydroxy-3-methylbutoxy)pyridin-4-yl)carbamate]",3.4
6,"COc1cnc2c(-c3nc4cc(F)c(O[C@@H](C)[C@@H](C)OC(=O)Nc5ccc(OCCO)nc5)nc4s3)cc(Cl)cc2c1 [Example 779, (2R,3S)-3-((2-(6-chloro-3-methoxyquinolin-8-yl)-6-fluorothiazolo[5,4-b]pyridin-5-yl)oxy) butan-2-yl (6-(2-hydroxyethoxy)pyridin-3-yl)carbamate]",3.3
7,"COc1cnc2c(-c3nc4cc(F)c(O[C@@H](C)[C@@H](C)OC(=O)Nc5ccnc(OCCO)c5)nc4s3)cc(Cl)cc2c1 [Example 780, (2R,3S)-3-((2-(6-chloro-3-methoxyquinolin-8-yl)-6-fluorothiazolo[5,4-b]pyridin-5-yl)oxy) butan-2-yl (2-(2-hydroxyethoxy)pyridin-4-yl)carbamate]",5
8,"COc1cnc2c(-c3nc4cc(F)c(O[C@@H](C)[C@@H](C)OC(=O)Nc5ccc(CCO)nc5)nc4s3)cc(Cl)cc2c1 [Example 781, (2R,3S)-3-((2-(6-chloro-3-methoxyquinolin-8-yl)-6-fluorothiazolo[5,4-b]pyridin-5-yl)oxy) butan-2-yl (6-(2-hydroxyethyl)pyridin-3-yl)carbamate]",6
9,"COc1cnc2c(-c3nc4cc(F)c(O[C@@H](C)[C@@H](C)OC(=O)Nc5ccc(C(F)(F)F)nc5)cc4s3)cc(Cl)cc2c1 [Example 783, (2R,3S)-3-((2-(6-chloro-3-methoxyquinolin-8-yl)-5-fluorobenzo[d]thiazol-6-yl)oxy)butan-2-yl (6-(trifluoromethyl)pyridin-3-yl)carbamate]",4.2
10,"COc1cnc2c(-c3nc4cc(F)c(O[C@@H](C)[C@@H](C)OC(=O)Nc5ccc(OC)nc5)cc4s3)cc(Cl)cc2c1 [Example 784, (2R,3S)-3-((2-(6-chloro-3-methoxyquinolin-8-yl)-5-fluorobenzo[d]thiazol-6-yl)oxy)butan-2-yl (6-methoxypyridin-3-yl)carbamate]",2.8
11,"COc1cncc(NC(=O)O[C@H](C)[C@H](C)Oc2cc3sc(-c4cc(Cl)cc5cc(OC)cnc45)nc3cc2F)c1 [Example 785, (2R,3S)-3-((2-(6-chloro-3-methoxyquinolin-8-yl)-5-fluorobenzo[d]thiazol-6-yl)oxy)butan-2-yl (5-methoxypyridin-3-yl)carbamate]",3.5
12,"COc1cnc2c(-c3nc4cc(F)c(O[C@@H](C)[C@@H](C)OC(=O)Nc5cnc(C)c(C)c5)cc4s3)cc(Cl)cc2c1 [Example 787, (2R,3S)-3-((2-(6-chloro-3-methoxyquinolin-8-yl)-5-fluorobenzo[d]thiazol-6-yl)oxy)butan-2-yl (5,6-dimethylpyridin-3-yl)carbamate]",2.9
13,"COc1cnc2c(-c3nc4cc(F)c(O[C@@H](C)[C@@H](C)OC(=O)Nc5cccnc5)cc4s3)cc(Cl)cc2c1 [Example 788, (2R,3S)-3-((2-(6-chloro-3-methoxyquinolin-8-yl)-5-fluorobenzo[d]thiazol-6-yl)oxy)butan-2-yl pyridin-3-ylcarbamate]",3.1

# Compounds with a lower IC50, results first:
row,IC50 [nM],Structure (SMILES)
1,1.9,"COc1cnc2c(-c3nc4cc(F)c(OC[C@@H](C)OC(=O)Nc5cnc(C)nc5)nc4s3)cc(Cl)cc2c1 [Example 770, (R)-1-((2-(6-chloro-3-methoxyquinolin-8-yl)-6-fluorothiazolo[5,4-b]pyridin-5-yl)oxy)propan-2-yl (2-methylpyrimidin-5-yl)carbamate]"
2,1.5,"COc1cnc2c(-c3nc4cc(F)c(O[C@@H](C)[C@@H](C)OC(=O)Nc5cnc(C)nc5)cc4s3)cc(F)cc2c1 [Example 772, (2R,3S)-3-((5-fluoro-2-(6-fluoro-3-methoxyquinolin-8-yl)benzo[d]thiazol-6-yl)oxy)butan-2-yl (2-methylpyrimidin-5-yl)carbamate]"
3,1.2,"COc1cnc2c(-c3nc4cc(F)c(O[C@@H](C)[C@@H](C)OC(=O)Nc5cnc(OCCO)nc5)nc4s3)cc(Cl)cc2c1 [Example 774, (2R,3S)-3-((2-(6-chloro-3-methoxyquinolin-8-yl)-6-fluorothiazolo[5,4-b]pyridin-5-yl)oxy) butan-2-yl (2-(2-hydroxyethoxy)pyrimidin-5-yl)carbamate]"
4,0.8,"COc1cnc2c(-c3nc4cc(F)c(O[C@@H](C)[C@@H](C)OC(=O)Nc5cnc(OCCO)nc5)nc4s3)cc(C)cc2c1 [Example 775, (2R,3S)-3-((6-fluoro-2-(3-methoxy-6-methylquinolin-8-yl)thiazolo[5,4-b]pyridin-5-yl)oxy)butan-2-yl (2-(2-hydroxyethoxy)pyrimidin-5-yl)carbamate]"
5,2.5,"COc1cnc2c(-c3nc4cc(F)c(O[C@@H](C)[C@@H](C)OC(=O)Nc5cncc(F)c5)nc4s3)cc(Cl)cc2c1 [Example 776, (2R,3S)-3-((2-(6-chloro-3-methoxyquinolin-8-yl)-6-fluorothiazolo[5,4-b]pyridin-5-yl)oxy)butan-2-yl (5-fluoropyridin-3-yl)carbamate]"
6,2.7,"COc1cnc2c(-c3nc4cc(F)c(O[C@@H](C)[C@@H](C)OC(=O)Nc5cncc(F)c5)cc4s3)cc(Cl)cc2c1 [Example 782, (2R,3S)-3-((2-(6-chloro-3-methoxyquinolin-8-yl)-5-fluorobenzo[d]thiazol-6-yl)oxy)butan-2-yl (5-fluoropyridin-3-yl)carbamate]"
7,2.2,"COc1cnc2c(-c3nc4cc(F)c(O[C@@H](C)[C@@H](C)OC(=O)Nc5cncc(C#N)c5)cc4s3)cc(Cl)cc2c1 [Example 786, (2R,3S)-3-((2-(6-chloro-3-methoxyquinolin-8-yl)-5-fluorobenzo[d]thiazol-6-yl)oxy)butan-2-yl (5-cyanopyridin-3-yl)carbamate]"
